In US9381273B2, “Scaffolds with oxygen carriers, and their use in tissue regeneration” (Yissum Research Development Company of the Hebrew …, priority 2008, dated 2016):

Assays:
[1] = tested on: tet-off BMP2 Luc/GFP cells; assay: Cell survival in ectopic implants, bioluminescence imaging (BLI); type: in vivo, C3H/HeN mice; details: fibrin gel, 5% and 10% PFTBA groups pooled
Text: Imaging of cell viability in vivo—Tet-off BMP2 Luc/GFP Cell viability in the ectopic implants was quantified using the BLI system as was described (Bar, Zilberman et al. 2003). This CCCD tracking system (Roper Chemiluminescence Imaging System) consists of a CCCD camera (model LN/CCD-1300EB; Roper Scientific Inc.) equipped with an ST-133 controller and a 50-mm Nikon lens (Nikon Inc.). In this system, a pseudocolor image represents light intensity (blue signifies least intense and red most intense). The integrated light is the result of 2-minute exposure and acquisition. This CCCD camera converts photons to electrons with an efficiency of approximately 90% in the wavelength emission range of luciferin and converts approximately 1.8 electrons per count. Thus, every count represents 2 photons. The measurement is a total integrated signal of a constant exposure interval. […] The measurement can be verified by using a progressively larger region of interest (ROI) and by subtracting background readings. An increase in the ROI has no appreciable effect on the total intensity that is measured. Before light detection, the mice were anesthetized with a ketamine-xylazine mixture, which is injected intraperitoneally at 1 μl/g body weight. […]

osteocalcin = assay: Host osteocalcin gene expression in vivo, BLI in OC/Luc transgenic mice; set-up: species or system OC/Luc Tg mice; details: fibrin gel with MSCs, 5 or 10% PFTBA pooled
Text: Osteocalcin gene expression in vivo—In order to analyze the effect of PFTBA supplementation on osteocalcin gene expression in vivo, transgenic mice (Oc-Luc), which harbor the Luc gene under the control of the osteogenic tissue-specific promoter, osteocalcin (Bar, Zilberman et al. 2003) were utilized. In order to monitor Luc activity in real-time a quantitative, the BLI system with the non-invasive cooled charge-coupled device (CCCD) camera was used. In this model, osteogenic activity in the transgenic mice was reported by Luc expression, which is activated by the osteocalcin promoter. This activity is detected by the CCCD as an emitted light following an injection of luciferin. The result values were normalized to constitutive tail expression of Luc, as previously described (Bar, Zilberman et al. 2003), so that the different mice that express the transgene with different intensities could be compared. In this experiment, 1×10^6 tet-off BMP2 cells in fibrin gel supplemented with 5 or 10% PFTBA, or not supplemented at all were implanted.

C3H/HeN mice [2] = assay: Cell-mediated posterior spinal fusion, micro CT; type: in vivo; details: 10% PFTBA
tet-off BMP-2 MSCs = assay: LDH release cytotoxicity assay of MSCs in fibrin gel in vitro; type: cell-based; details: 10% PFTBA (w/v) in 100 μl fibrin gel, 10^6 MSCs, days 1 and 3 after cell seeding
Experimental: Effect of PFTBA on cell survival and oxygen levels—10^6 tet-off BMP-2 MSCs were suspended in 100 μl fibrin gel and cultured in 35-mm plates. In these conditions, the inner region of the hydrogel is hypoxic (data not shown). The experimental groups included hydrogels which included 0% or 10% PFTBA (w/v). Cell death was measured using the LDH release cytotoxicity assay on Days 1, 3, 7 and 14. […] Note that cytotoxicity was reduced over time, probably since nutrients and oxygen supply were more available to the remaining surviving cells. In a separate experiment, oxygen levels were measured in the center of MSC-loaded gels ([…] in 300 μl fibrin gel) using the Microx TX3 oxygen sensor (Presens, Precision Sensing GmbH, Regensburg, Germany).

C3H/HeN mice [3] = assay: Radius bone defect regeneration, micro CT; details: 2.5-mm radius defect, fibrin gel with MSCs, 14 days
Experimental: Briefly, C3H/HeN female mice aged 6-8 weeks (n=16) were anesthetized using ketamine-xylazine mixture injected intraperitoneal. The skin of the forelimb was swabbed with isopropyl alcohol (70%). The skin was cut and 2.5 mm-long defect was created in the radius bone. Approximately one million Tet-off BMP2 cells were suspended in fibrin gel (Baxter) and supplemented with 5 or 10% PFTBA (Sigma, n=5 for each group) or not supplemented at all (n=6). The cell-gel mixture was incubated for 5 minutes in room temperature (RT) under sterile conditions to allow the fibrin to gel, and was subsequently implanted into the defect site. The mice were sacrificed 2 weeks post-transplantation; limbs were harvested and scanned using the μCT in order to analyze bone formation.
A quantitative morphometric analysis of the bone formation in nonunion fractures, was undertaken using μCT as previously described (Tai, K., et al., 2008, Tissue Eng Part A 14, 1709-1720). Mouse forelimbs, including ulna and radius, as well as native muscle and soft tissue were scanned using a Desktop Cone-Beam Micro-CT Scanner (μCT 40; Scanco Medical AG, Bruttisellen, Switzerland) at a spatial nominal resolution of 20 mm. A constrained 3D Gaussian filter (sigma=0.8 and support=1) was used to partly suppress the noise in the volumes. The bone tissue was segmented from marrow and soft tissue using a global thresholding procedure. In the nonunion fracture site, the evaluation was done only in the central 2-mm of the bone defect, including only newly formed bone. Morphometric indices were determined as described earlier.

C3H/HeN mice [4] = assay: Ectopic bone formation by subcutaneous hydrogel implants with Tet-off BMP2 MSCs, micro CT and histology; details: for bone volume of ectopic bone: SC implant, mean±standard error
Experimental: Ectopic implantations—At near confluency, Tet-off BMP2 cells or Tet-off BMP2 Luc/GFP cells were trypsinized and counted using the trypan blue exclusion method. Aliquots of cells (one million Tet-off BMP2 cells or 3 million Tet-off BMP2 Luc/GFP cells) were resuspended in 50111 of fibrin or silk gel. Five, 10 or 20% [weight per volume (w/v)] Heptacosafluorotributylamine (Perfluorotributylamine, PFTBA, Sigma catalogue number H5262; Sigma-Aldrich, St Louis, Mo., USA) was added to the hydrogel just before implantations.
The cell-hydrogel mixture was injected subcutaneously in 8 weeks old female C3H/HeN mice, as follows: mice were anesthetized with a mixture of xylazine and ketamine (0.15% xylazine and 0.85% ketamine), which was injected intraperitoneally (i.p.) at 1 μl/g body weight. The area of injection was shaved and cleaned using 70% ethanol. Using 27G tuberculin syringe the cells-gel mixture was injected subcutaneously. Each mouse received 3 or 4 implants, consistent of 50 μl hydrogel in which cells and PFTBA were mixed. Mice where sacrificed after two weeks, and implants were harvested and fixed in 4% formalin.
Analysis of bone formation using micro CT imaging—In order to quantify bone formation in the ectopic implants, a high-resolution μCT system, Desktop μCT 40 (Scanco Medical A G, Bassersdorf, Switzerland) was used. Micro-tomographic slices were acquired at 1000 projections and reconstructed at a spatial nominal resolution of 12 μm. A constrained 3-D Gaussian filter (σ=0.8 and support=1) was used to partly suppress the noise in the volumes. The mineralized tissue was segmented from the hydrogel using a global thresholding procedure (Muller, R., and Ruegsegger, P. 1997, Stud Health Technol Inform 40, 61-79). In addition to the visual assessment of structural images, morphometric indices were determined from the microtomographic datasets using direct 3D morphometry (Hildebrand, T., 1999, J Bone Miner Res 14, 1167-1174). […] The following morphometric indices were determined for the newly formed bone: (i) volume of bone tissue; (ii) bone mineral density; (iii) trabecular thickness; (iv) anisotropy; (v) bone volume density and (vi) trabecular separation.
Histological analysis of bone formation—Harvested ectopic implants and regenerated limbs were processed for histology and stained as described (Sheyn, Kimelman-Bleich et al. 2007). In short, samples were fixed in 70% ethanol, passed through a graded series of ethanols, and embedded in paraffin. Sections 5-8 μm thick were cut from each paraffin block using a motorized microtome (Leica Microsystems, Wetzlar, Germany). Masson trichrom staining was performed in order to evaluate the histomorphology of the mineralized tissue.

[5] = fibrin gel with MSCs, 10% PFTBA (w/v), two weeks

Compound: FC(F)(F)C(F)(F)C(F)(F)C(F)(F)N(C(F)(F)C(F)(F)C(F)(F)C(F)(F)F)C(F)(F)C(F)(F)C(F)(F)C(F)(F)F [PFTBA, Heptacosafluorotributylamine]
- luciferase activity (cell survival) ([1]; day 3 post implantation): 21,519±2,047 integrated light units (ILU)
- luciferase activity (cell survival) versus no-PFTBA group ([1]; day 7 post implantation): no significant difference between the groups was found
- osteocalcin activity (osteocalcin; day 5 post-implantation): 2.76±0.48 relative light units (RLU; implant/tail)
- osteocalcin activity versus no PFTBA group (osteocalcin; day 7 and 14): no significant difference was noted
- average connectivity density elevation versus no PFTBA group (C3H/HeN mice [2]; week 3 post-implantation): 1.29 fold
- bone volume density elevation versus no PFTBA group (C3H/HeN mice [2]; week 3 post-implantation): 1.25 fold
- bone volume difference versus no PFTBA group (C3H/HeN mice [2]; week 3 post-implantation): this difference was not noted
- trabecular number increase versus no PFTBA group (C3H/HeN mice [2]; week 3 post-implantation): 1.44 fold
- bone volume of spinal fusion mass (C3H/HeN mice [2]; fibrin gel with MSCs, lumbar paravertebral muscle, 6 weeks post implantation): 70.71±2.7 mm^3
- cell death (LDH release cytotoxicity) versus 0% PFTBA (tet-off BMP-2 MSCs): significantly fewer cells died
- volume of bone formed versus no PFTBA (C3H/HeN mice [3]; 5 or 10% PFTBA (w/v)): no significant difference
- BMD elevation of the formed bone, supplemented versus non-supplemented (C3H/HeN mice [3]; 5 or 10% PFTBA): 1.1-1.2
- trabecular thickness elevation versus no-PFTBA group (C3H/HeN mice [3]; 5 or 10% PFTBA): 1.3 fold
- bone volume of ectopic bone (C3H/HeN mice [4]; fibrin gel with MSCs, 5% PFTBA (w/v), two weeks): 0.98±0.26 mm^3
- bone volume of ectopic bone (C3H/HeN mice [4]; [5]): 1.77±0.47 mm^3
- increase in bone volume compared with the 0% PFTBA group (C3H/HeN mice [4]; [5]): 2.5 fold
- histology of implants (bone, hypertrophic cartilage, bone marrow) (C3H/HeN mice [4]; fibrin gel, 0%, 5%, 10% PFTBA, day 14, Masson trichrom): No histological difference was found
- volume of the ectopic bone versus no PFTBA group (C3H/HeN mice [4]; two weeks, 1-tailed T-test p=0.033): significant differences were found
